Drawing on patent US9758495B2, “Heteroaryl acid morpholinone compounds as MDM2 inhibitors for the treatment of cancer” (AMGEN INC., priority 2013, dated 2017), this text covers IC50 for 5 compounds.

Chain of GST-hMDM2 (aa 1-188) / biotinylated-p53 (aa 1-83) (Q00987 1-188): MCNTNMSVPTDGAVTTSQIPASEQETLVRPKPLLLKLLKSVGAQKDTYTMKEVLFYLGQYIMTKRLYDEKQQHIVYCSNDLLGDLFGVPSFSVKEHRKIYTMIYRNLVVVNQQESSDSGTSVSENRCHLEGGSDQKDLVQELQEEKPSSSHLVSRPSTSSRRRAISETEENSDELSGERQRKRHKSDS

This assay deals with GST-hMDM2 (aa 1-188) / biotinylated-p53 (aa 1-83) (Homo sapiens (Human), UniProt Q00987). The assay is described as follows: Homogenous Time-Resolved Fluorescence Assay (HTRF2 assay), inhibition of HDM2-p53 interaction. Particulars: 0.2 nM GST-hMDM2 (1-188), 0.5 nM biotinylated-p53 (1-83), 0.18 nM SA-XLent, 100 mM KF. It is filed as binding. As to the method:
Residues 1-83 of human p53 were expressed as an amino-terminal AviTag™-TrxA-6×His fusion protein (biotinylated p53) in E. coli. Each protein was purified from cell paste by affinity chromatography.
Specifically, 10 uL of GST-hMDM2 was incubated with 10 ul of diluted compound (various concentrations, serially diluted) in 10% DMSO for 20 minutes at room temperature. 20 uL of biotinylated-p53 was added to the GST-hMDM2+compound mixture, and then incubated at room temperature for 60 min. 10 uL of detection buffer consisting of SA-XLent, anti-GST cryptate antibody and KF was added to GST-hMDM2, biotinylated-p53 and compound reaction and left at room temperature to reach equilibrium for >4 hrs. The final concentration of DMSO in the reaction was 2%. Time-resolved fluorescence readings were measured on a microplate multilabel reader. Percentage of inhibition was calculated relative to nutlin-3.
Take `CC(C)(C)S(=O)(=O)C[C@H](C1CC1)N1C(=O)[C@](C)(Cc2ccc(C(=O)O)c[n+]2[O-])O[C@H](c2cccc(Cl)c2)[C@H]1c1ccc(Cl)cc1` (single isomer, unassigned) [Example 3, 2-(((2S,5R,6R)-4-((S)-2-(tert-Butylsulfonyl)-1-cyclopropylethyl)-6-(3-chlorophenyl)-5-(4-chlorophenyl)-2-methyl-3-oxomorpholin-2-yl)methyl)-5-carboxypyridine 1-oxide or 2-(((2R,5R,6R)-4-((S)-2-(tert-Butylsulfonyl)-1-cyclopropylethyl)-6-(3-chlorophenyl)-5-(4-chlorophenyl)-2-methyl-3-oxomorpholin-2-yl)methyl)-5-carboxypyridine 1-oxide]: it took 0.23 nM to reach half-maximal inhibition (IC50).
As for `CC(C)(C)S(=O)(=O)C[C@H](C1CC1)N1C(=O)[C@@](C)(Cc2ccc(C(=O)O)c[n+]2[O-])O[C@H](c2cccc(Cl)c2)[C@H]1c1ccc(Cl)cc1` (single isomer, unassigned) [Example 4, 2-(((2R,5R,6R)-4-((S)-2-(tert-butylsulfonyl)-1-cyclopropylethyl)-6-(3-chlorophenyl)-5-(4-chlorophenyl)-2-methyl-3-oxomorpholin-2-yl)methyl)-5-carboxypyridine 1-oxide or 2-(((2S,5R,6R)-4-((S)-2-(tert-butylsulfonyl)-1-cyclopropylethyl)-6-(3-chlorophenyl)-5-(4-chlorophenyl)-2-methyl-3-oxomorpholin-2-yl)methyl)-5-carboxypyridine 1-oxide], the figure is 1.85 nM; as for `CC(C)(C)S(=O)(=O)C[C@H](C1CC1)N1C(=O)[C@@](C)(Cc2ccc(C(=O)O)cn2)O[C@H](c2cccc(Cl)c2)[C@H]1c1ccc(Cl)c(F)c1` (single isomer, unassigned) [Example 7, 6-(((2R,5R,6R)-4-((S)-2-(tert-butylsulfonyl)-1-cyclopropylethyl)-5-(4-chloro-3-fluorophenyl)-6-(3-chlorophenyl)-2-methyl-3-oxomorpholin-2-yl)methyl)nicotinic acid or 6-(((2S,5R,6R)-4-((S)-2-(tert-butylsulfonyl)-1-cyclopropylethyl)-5-(4-chloro-3-fluorophenyl)-6-(3-chlorophenyl)-2-methyl-3-oxomorpholin-2-yl)methyl)nicotinic acid], less than 0.1 nM; as for `CC(C)(C)S(=O)(=O)C[C@H](C1CC1)N1C(=O)[C@@](C)(Cc2ncc(C(=O)O)s2)O[C@H](c2cccc(Cl)c2)[C@H]1c1ccc(Cl)c(F)c1` (single isomer, unassigned) [Example 5, 2-(((2R,5R,6R)-4-((S)-2-(tert-Butylsulfonyl)-1-cyclopropylethyl)-5-(4-chloro-3-fluorophenyl)-6-(3-chlorophenyl)-2-methyl-3-oxomorpholin-2-yl)methyl)thiazole-5-carboxylic acid or 2-(((2S,5R,6R)-4-((S)-2-(tert-butylsulfonyl)-1-cyclopropylethyl)-5-(4-chloro-3-fluorophenyl)-6-(3-chlorophenyl)-2-methyl-3-oxomorpholin-2-yl)methyl)thiazole-5-carboxylic acid], 0.121 nM.
With `CC(C)(C)S(=O)(=O)C[C@H](C1CC1)N1C(=O)[C@@](C)(Cc2ccc(C(=O)O)cn2)O[C@H](c2cccc(Cl)c2)[C@H]1c1ccc(Cl)c(F)c1` (single isomer, unassigned) [Example 6, 6-(((2R,5R,6R)-4-((S)-2-(tert-Butylsulfonyl)-1-cyclopropylethyl)-5-(4-chloro-3-fluorophenyl)-6-(3-chlorophenyl)-2-methyl-3-oxomorpholin-2-yl)methyl)nicotinic acid or 6-(((2S,5R,6R)-4-((S)-2-(tert-butylsulfonyl)-1-cyclopropylethyl)-5-(4-chloro-3-fluorophenyl)-6-(3-chlorophenyl)-2-methyl-3-oxomorpholin-2-yl)methyl)nicotinic acid] the figure was 0.11 nM.
